# According to PMC8634903, “Effects of Dicyclohexyl Phthalate Exposure on PXR Activation and Lipid Homeostasis in Mice” (Environmental Health Perspectives, 2021):
# Columns and labels:
# [1] = target: T1, pregnane X receptor (hPXR) (Homo sapiens, UniProt O75469); assay: LanthaScreen TR-FRET competitive binding assay with recombinant GST-hPXR LBD; also cell reporter assay (EC50 […])
# T1 construct: gene NR1I2
# T1 sequence (O75469 130-434 limits assumed): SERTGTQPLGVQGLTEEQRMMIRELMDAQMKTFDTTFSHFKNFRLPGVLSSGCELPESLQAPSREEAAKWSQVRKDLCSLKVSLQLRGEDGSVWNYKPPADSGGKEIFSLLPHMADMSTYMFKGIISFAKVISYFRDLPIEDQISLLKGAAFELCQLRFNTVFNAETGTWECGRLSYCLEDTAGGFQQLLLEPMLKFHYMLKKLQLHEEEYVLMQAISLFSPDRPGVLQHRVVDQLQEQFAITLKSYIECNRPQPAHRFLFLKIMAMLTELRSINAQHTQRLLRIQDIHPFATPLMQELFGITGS
# [2] = target: T2, rat pregnane X receptor (rPXR) (Rattus norvegicus, UniProt Q9R1A7); assay: GAL4-LBD luciferase reporter assay in LS180 cells at […] DCHP; type: cell-based
# T2 construct: gene Nr1i2
# T2 sequence (Q9R1A7 143-431 limits assumed): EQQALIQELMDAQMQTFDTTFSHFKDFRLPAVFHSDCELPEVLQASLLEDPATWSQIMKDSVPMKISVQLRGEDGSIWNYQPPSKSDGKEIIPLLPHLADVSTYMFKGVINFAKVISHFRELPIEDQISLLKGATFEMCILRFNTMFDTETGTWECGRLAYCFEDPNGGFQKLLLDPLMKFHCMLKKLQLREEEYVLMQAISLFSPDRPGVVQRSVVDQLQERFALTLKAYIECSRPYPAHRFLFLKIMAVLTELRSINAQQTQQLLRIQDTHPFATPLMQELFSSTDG
# [3] = target: T1, pregnane X receptor (hPXR); assay: LanthaScreen TR-FRET competitive binding assay with recombinant GST-hPXR LBD (positive control); also cell reporter assay
SMILES,IC50 [1],GAL4-LBD luciferase reporter assay in LS180 cells at 10 μM DCHP [2],LanthaScreen TR-FRET competitive binding assay with recombinant GST-hPXR LBD (po) [3]
"O=C(OC1CCCCC1)c1ccccc1C(=O)OC1CCCCC1 [DCHP, dicyclohexyl phthalate]",7.3 µM,"DCHP activated three forms of PXR including hPXR, mPXR, and rat PXR (rPXR)",
"CCCCC(CC)COC(=O)c1ccccc1C(=O)OCC(CC)CCCC (stereo not drawn) [DEHP, di(2-ethylhexyl) phthalate]",,,inhibition of FRET between fluorescein-labeled PXR ligand and recombinant GST-PXR LBD by DCHP and DEHP
